Source: ChEMBL document CHEMBL4673297, “Glutathione peroxidase-like functions of 1,2-diselenane-4,5-diol and its amphiphilic derivatives: Switchable catalytic cycles depending on peroxide substrates” (Bioorg Med Chem, 2021)
Calls of active or inactive are those of the source. The rule behind the calls is not given here.

Tests used:
[1] = Glutathione peroxidase-like catalytic anti-lipid peroxidation activity assessed as inhibition of AAPH-induced lipid peroxidation incubated for 3 hrs using soybean lecithin/cholesterol-liposomes by TBARS assay; assay type: physicochemical
[2] = (§1) Glutathione peroxidase-like catalytic antioxidant activity in pH 7 phosphate buffer assessed as catalytic reduction of H2O2 by measuring initial velocity at 0.2 mM and 25 degreeC using reduced DTT as di-thiol co-substrate in presence of NADPH by UV absorbance analysis (reference value: 72+/- 3 microM/min); assay type: functional
[3] = as §1, with “100 uM” for “0.2 mM”, “GSH” for “reduced DTT”, “mono-thiol” for “di-thiol”, “11 +/- 0.4” for “72+/- 3”; assay type: functional
[4] = Glutathione peroxidase-like catalytic activity assessed as drug oxidation by measuring (S)-[1,2,7]Oxadiselenepan-4-yl-ammonium formation incubated with 8.6 mM H2O2 in water at 3.8 mM incubated for 3 hrs by ESI(+)-MS spectral analysis; assay type: functional
[5] = Glutathione peroxidase-like catalytic activity assessed as drug oxidation by measuring (S)-2,7-Dioxo-2lambda(4),7lambda(4)-[1,2,7]oxadiselenepan-4-yl-ammonium formation incubated with 8.6 mM H2O2 and 8.6 mM reduced DTT in water at 3.8 mM incubated for 2 mins by ESI(+)-MS spectral analysis; assay type: functional
[6] = Glutathione peroxidase-like catalytic activity assessed as drug oxidation by measuring (S)-2-Oxo-2lambda(4)-[1,2,7]oxadiselenepan-4-yl-ammonium formation incubated with 3.8 mM H2O2 in water at 3.8 mM incubated for 30 mins by ESI(+)-MS spectral analysis; assay type: functional
[7] = Glutathione peroxidase-like catalytic activity assessed as drug oxidation by measuring (2S)-1,4-diseleninobutan-2-aminium formation incubated with 8.6 mM H2O2 in water at 3.8 mM incubated for 3 hrs by ESI(+)-MS spectral analysis; assay type: functional
[8] = Glutathione peroxidase-like catalytic activity assessed as drug oxidation by measuring (S)-2-Oxo-2lambda(4)-[1,2,7]oxadiselenepan-4-yl-ammonium formation incubated with 8.6 mM H2O2 and 8.6 mM reduced DTT in water at 3.8 mM incubated for 2 mins by ESI(+)-MS spectral analysis; assay type: functional
[9] = Glutathione peroxidase-like catalytic activity assessed as drug oxidation by measuring (S)-[1,2,7]Oxadiselenepan-4-yl-ammonium formation incubated with 3.8 mM H2O2 in water at 3.8 mM incubated for 30 mins by ESI(+)-MS spectral analysis; assay type: functional
[10] = Glutathione peroxidase-like catalytic activity assessed as drug oxidation by measuring (S)-2-Oxo-2lambda(4)-[1,2]diselenan-4-yl-ammonium formation incubated with 8.6 mM H2O2 and 8.6 mM reduced DTT in water at 3.8 mM incubated for 2 mins by ESI(+)-MS spectral analysis; assay type: functional
[11] = Glutathione peroxidase-like catalytic activity assessed as drug oxidation by measuring (S)-2,7-Dioxo-2lambda(4),7lambda(4)-[1,2,7]oxadiselenepan-4-yl-ammonium formation incubated with 8.6 mM H2O2 in water at 3.8 mM incubated for 3 hrs by ESI(+)-MS spectral analysis; assay type: functional
[12] = Glutathione peroxidase-like catalytic activity assessed as drug oxidation by measuring (2S)-1,4-diseleninobutan-2-aminium formation incubated with 8.6 mM H2O2 and 8.6 mM reduced DTT in water at 3.8 mM incubated for 2 mins by ESI(+)-MS spectral analysis; assay type: functional
[13] = Glutathione peroxidase-like catalytic activity assessed as drug oxidation by measuring (S)-2-Oxo-2lambda(4)-[1,2]diselenan-4-yl-ammonium formation incubated with 3.8 mM H2O2 in water at 3.8 mM incubated for 30 mins by ESI(+)-MS spectral analysis; assay type: functional
[14] = Glutathione peroxidase-like catalytic activity assessed as drug oxidation by measuring (S)-2,7-Dioxo-2lambda(4),7lambda(4)-[1,2,7]oxadiselenepan-4-yl-ammonium formation incubated with 3.8 mM H2O2 in water at 3.8 mM incubated for 30 mins by ESI(+)-MS spectral analysis; assay type: functional
[15] = Glutathione peroxidase-like catalytic activity assessed as drug oxidation by measuring (S)-[1,2,7]Oxadiselenepan-4-yl-ammonium formation incubated with 8.6 mM H2O2 and 8.6 mM reduced DTT in water at 3.8 mM incubated for 2 mins by ESI(+)-MS spectral analysis; assay type: functional
[16] = Glutathione peroxidase-like catalytic activity assessed as drug oxidation by measuring (S)-2-Oxo-2lambda(4)-[1,2,7]oxadiselenepan-4-yl-ammonium formation incubated with 8.6 mM H2O2 in water at 3.8 mM incubated for 3 hrs by ESI(+)-MS spectral analysis; assay type: functional
[17] = Glutathione peroxidase-like catalytic activity assessed as drug oxidation by measuring (S)-2-Oxo-2lambda(4)-[1,2]diselenan-4-yl-ammonium formation incubated with 8.6 mM H2O2 in water at 3.8 mM incubated for 3 hrs by ESI(+)-MS spectral analysis; assay type: functional
HeLa [18] = assay: Protection against H2O2-induced oxidative stress in human HeLa cells assessed as cell viability at 20 uM preincubated with compound for 15 hrs followed by drug wash-out and later incubated with H2O2 for 4 hrs by MTT assay; assay type: functional, cell-based
HeLa [19] = assay: Protection against AAPH-induced oxidative stress in human HeLa cells assessed as increase in cell viability at 5 to 20 uM preincubated for 15 hrs followed by incubation with AAPH for 3 hrs by MTT assay relative to control; assay type: functional; details: dose 5-20 µM; time 18 hrs
HeLa [20] = assay: Cytotoxicity against human HeLa cells assessed as reduction in cell viability at 100 uM measured after 15 hrs hrs by MTT assay; assay type: cell-based
[21] = Solubility of the compound in phosphate buffer solution at pH 7.5 in presence of reduced DTT; assay type: physicochemical
HeLa [22] = assay: (§2) Cytotoxicity against human HeLa cells assessed as cell viability at 20 uM measured after 15 hrs by MTT assay relative to control; assay type: cell-based; details: hela, 15 h, 20 µM
[23] = Glutathione peroxidase-like catalytic antioxidant activity in pH 7 phosphate buffer assessed as catalytic reduction of H2O2 by measuring lipoic acid formation using DHLA as co-substrate at 0.2 mM in presence of NADPH by UV absorbance analysis; assay type: functional
[24] = Antioxidant activity assessed as radical scavenging activity by measuring DPBQ generation using DPPD and AMVN as radical initiator at 0.5 mM preincubated for 5 mins with DPPD followed by AMVN addition and measured for 30 mins by UV/Vis-spectrophotometry analysis; assay type: functional; details: time 35.0 min
[25] = Glutathione peroxidase-like catalytic antioxidant activity assessed as CST-HCl thiol co-substrate oxidation by measuring disulfide formation at 11.5 umol in presence of CHP lipophilic peroxide in water/CH2Cl2 solution incubated for 24 hrs by 1H-NMR spectroscopy; assay type: functional; details: dose 11.5 µmol
[26] = Glutathione peroxidase-like catalytic antioxidant activity assessed as CST-HCl thiol co-substrate oxidation by measuring disulfide formation at 11.5 umol in presence of CHP lipophilic peroxide in 10 mM aqueous HCl/CH2Cl2 solution incubated for 24 hrs by 1H-NMR spectroscopy; assay type: functional; details: dose 11.5 µmol
[27] = as §2; assay type: cell-based; details: HeLa cells, read-out: Activity
[28] = Glutathione peroxidase-like catalytic anti-lipid peroxidation activity assessed as inhibition of AAPH-induced lipid peroxidation incubated for 3 hrs in presence of (+/-)-trans-5-Hydroxy-1,2-diselenan-4-yl dodecanoate using soybean lecithin/cholesterol-liposomes by TBARS assay; assay type: physicochemical

c1ccc([Se][Se]c2ccccc2)cc1
IC50 [1]: 70.1 µM

O[C@@H]1C[Se]C[C@H]1O
IC50 [2]: Not Active
IC50 [3]: Not Active

N[C@H]1CC[Se][Se]C1
Drug metabolism [4]: Metabolite detected
Drug metabolism [5]: Metabolite not detected
Drug metabolism [6]: Metabolite detected
Drug metabolism [7]: Metabolite detected
Drug metabolism [8]: Metabolite not detected
Drug metabolism [9]: Metabolite detected
Drug metabolism [10]: Metabolite detected
Drug metabolism [11]: Metabolite detected
Drug metabolism [12]: Metabolite not detected
Drug metabolism [13]: Metabolite detected
Drug metabolism [14]: Metabolite detected
Drug metabolism [15]: Metabolite detected
Drug metabolism [16]: Metabolite detected
Drug metabolism [17]: Metabolite detected

O=C(O[C@@H]1C[Se][Se]C[C@H]1O)c1ccc2ccccc2c1 (racemic)
Activity (HeLa [18]): inactive
IC50 [1]: 15.5 µM
fold change (FC) (HeLa [19]): 1.5
Activity (HeLa [20]): Toxic
V0 [3]: 11.3 µM/min
solubility [21]: Insoluble
Activity (HeLa [22]): Non-Toxic

O=C(O[C@@H]1C[Se][Se]C[C@H]1O)c1ccccc1 (racemic)
V0 [2]: 116 µM/min
Activity (HeLa [18]): inactive
IC50 [1]: 27.3 µM
Activity (HeLa [20]): Toxic
V0 [3]: 12.7 µM/min
solubility [21]: Soluble
Activity (HeLa [22]): Toxic

CCC(=O)O[C@@H]1C[Se][Se]C[C@H]1O (racemic)
Activity [23]: Active
V0 [2]: 330 µM/min
Activity (HeLa [18]): inactive
IC50 [1]: 121 µM
Activity (HeLa [20]): Toxic
V0 [3]: 23 µM/min
solubility [21]: Soluble
Activity (HeLa [22]): Toxic

CCCCCCCC(=O)O[C@@H]1C[Se][Se]C[C@H]1O (racemic)
V0 [2]: 109 µM/min
Activity (HeLa [18]): inactive
IC50 [1]: 30 µM
fold change (FC) (HeLa [19]): 1.5
Activity (HeLa [20]): Non-Toxic
V0 [3]: 11.9 µM/min
solubility [21]: Soluble
Activity (HeLa [22]): Non-Toxic

CCCCCCCCCCCC(=O)O[C@@H]1C[Se][Se]C[C@H]1O (racemic)
V0 [2]: 122 µM/min
Activity (HeLa [18]): inactive
IC50 [1]: 10.7 µM
fold change (FC) (HeLa [19]): 1.5
Activity (HeLa [20]): Non-Toxic
V0 [3]: 9.3 µM/min
solubility [21]: Soluble
Activity (HeLa [22]): Non-Toxic

CCCCCC(=O)O[C@@H]1C[Se][Se]C[C@H]1O (racemic)
Activity [23]: Active
V0 [2]: 149 µM/min
Activity (HeLa [18]): inactive
IC50 [1]: 42.2 µM
Activity (HeLa [20]): Toxic
V0 [3]: 14.9 µM/min
solubility [21]: Soluble
Activity (HeLa [22]): Toxic

CCCCCCCCCC(=O)O[C@@H]1C[Se][Se]C[C@H]1O (racemic)
V0 [2]: 172 µM/min
Activity (HeLa [18]): inactive
IC50 [1]: 13.2 µM
fold change (FC) (HeLa [19]): 1.5
Activity (HeLa [20]): Non-Toxic
V0 [3]: 10.9 µM/min
solubility [21]: Soluble
Activity (HeLa [22]): Non-Toxic

CCCCCCCCCCCCCC(=O)O[C@@H]1C[Se][Se]C[C@H]1O (racemic)
V0 [2]: 63 µM/min
Activity [24]: inactive
Activity (HeLa [18]): inactive
Activity [25]: Active
IC50 [1]: 16.7 µM
Activity [26]: Active
fold change (FC) (HeLa [19]): 1.5
Activity (HeLa [20]): Non-Toxic
V0 [3]: 9.1 µM/min
solubility [21]: Soluble
Activity (HeLa [22]): Non-Toxic

O=c1c2ccccc2[se]n1-c1ccccc1 [EBSELEN]
V0 [2]: 202 µM/min
IC50 [1]: 80.4 µM
V0 [3]: 32.6 µM/min
viability at 15 h, 20 µM [27]: 80%

CC1=NN(c2ccccc2)C(=O)C1 [EDARAVONE]
IC50 [1]: 29.3 µM
IC50 [28]: 18.7 µM
